Experimental data: patent publication US8686043B2, “Heterocyclic sulfonamides, uses and pharmaceutical compositions thereof” (Pfizer Inc., priority 2009, dated 2014)

Each compound was assayed on AMPA receptors (assay: AMPA ES Cell FLIPR Screen (AMPA Potentiator Assay)). Details: ES cell-derived neurons, FLIPR (Fluo-4), 32 μM AMPA challenge; values marked * are the geometric mean of 2-5 EC50 determinations.
Assay type: cell-based, murine
Description: Growth and Maintenance of ES Cells
Murine ES cell line E14, with a targeted mutation in the Sox1 gene and a neuroectodermal marker that offers G418 resistance when the Sox1 gene is expressed (Stem Cell Sciences, West Mains Road, Edinburgh, Scotland EH9 3JQ) may be used in all experiments. ES cells may be maintained undifferentiated as previously described (Methods For The Isolation And Maintenance Of Murine Embryonic Stem Cells; Roach-M-L, McNeish-J-D., Methods in Molecular Biology, 185, 1-16 (2002)). Briefly, ES cells may be grown in stem cell culture media comprising a base medium of Knockout™ D-MEM (Invitrogen 5791 Van Allen Way, Carlsbad, Calif. USA 92008), supplemented with 15% ES qualified Fetal Bovine Serum (FBS) (Invitrogen), 0.2 mM L-Glutamine (Invitrogen), 0.1 mM MEM non-essential amino acids (Invitrogen), 30 μg/ml Gentamicin […] (Invitrogen), 1000 U/ml ESGRO™ (CHEMICON International, Inc., 28820 Single Oak Drive, Temecula, Calif. 92590) and 0.1 mM 2-mercaptoethanol (Sigma, 3050 Spruce St., St. Louis, Mo. 63103). ES cells may then be plated on gelatin-coated dishes (BD Biosciences, 2350 Qume Drive, San Jose, Calif. 95131), wherein the media is changed daily and the cells dissociated with 0.05% Trypsin EDTA (Invitrogen) every other day.
Neural In Vitro Differentiation of ES Cells
Embryoid Body Formation: Prior to embryoid body (EB) formation the ES cells may be weaned from FBS onto Knockout Serum Replacement™ (KSR) (Invitrogen). To form EBs, ES cells may be dissociated into a single cell suspension, then 3×10^6 cells plated in bacteriology dishes (Nunc 4014) and grown as a suspension culture in NeuroEB-I medium that consisted of Knockout™ D-MEM (Invitrogen), supplemented with 10% KSR (Invitrogen), 0.2 mM L-Glutamine (Invitrogen), 0.1 mM MEM non-essential amino acids (Invitrogen), 30 μg/ml Gentamicin (Invitrogen), 1000 U/ml ESGRO™ (CHEMICON International, Inc.), 0.1 mM 2-mercaptoethanol (Sigma) and 150 ng/ml Transferrin (Invitrogen). The plates may then be put on a Stovall Belly Button™ shaker in an atmospheric oxygen incubator. The media may be changed on day 2 of EB formation with NeuroEB-I and on day 4 with NeuroEB-II (NeuroEB-I plus 1 μg/ml mNoggin (R&D Systems, 614 McKinley Place N.E. Minneapolis, Minn. 55413)
Neuronal Precursor Selection and Expansion: On day 5 of EB formation, EBs may be dissociated with 0.05% Trypsin EDTA, and 4×10^6 cells/100 mm dish may then be plated on Laminin coated tissue culture dishes in NeuroEB-II-G418 medium that consisted of a base medium of a 1:1 mixture of D-MEM/F12 supplemented with N2 supplements and NeuroBasal Medium supplemented with B27(I ASSUME THIS IS THE VITAMIN) supplement and 0.1 mM L-Glutamine (all from Invitrogen). The base medium may then be supplemented with 10 ng/ml bFGF (Invitrogen), 1 μg/ml mNoggin, 500 ng/ml SHH-N (IS THIS SONIC HEDGEHOG FROM ProSpecBio Rehovot Science Park, P.O. BOX 398, Rehovot 76103, Israel), 100 ng/ml FGF-8b (R&D Systems), 1 μg/ml Laminin and 200 μg/ml G418 (Invitrogen) for selection of neuronal precursors expressing Sox-1. The plates may then be put in an incubator containing 2% oxygen and maintained in these conditions. During the 6-day selection period, the NeuroEB-II ([…]) media should be changed daily. On day 6, the surviving neuronal precursor foci may then be dissociated with 0.05% Trypsin EDTA and the cells plated at a density of 1.5×10^6 cells/100 mm Laminin coated dish in Neuroll ([…])-G418 medium. The cells may then be dissociated every other day for expansion, and prepared for cryopreservation at passage 3 or 4. The cryopreservation medium typically contains 50% KSR, 10% dimethyl sulfoxide (DMSO) (Sigma) and 40% Neurol([…])-G418 medium. Neuronal precursors may be cryopreserved at a concentration of 4×10^6 cells/ml and 1 ml/cryovial in a controlled rate freezer overnight then transferred to an ultra-low freezer or liquid nitrogen for long-term storage. […]

Row | EC50 | SMILES
1 | 3330 nM | CC(=O)NC1CCN(c2ccc(O[C@@H]3COC[C@H]3NS(=O)(=O)C(C)C)cc2)C1 (mixture of isomers) [Example 1, N-{1-[4-trans-({4-[(isopropylsulfonyl)amino]tetrahydrofuran-3-yl}oxy)phenyl]pyrrolidin-3-yl}acetamide]
2 | 2910 nM | CCOc1ccccc1-c1ccc(O[C@@H]2COC[C@H]2NS(=O)(=O)C(C)C)cc1 (racemic) [Example 8, trans-N-{4-[(2′-ethoxybiphenyl-4-yl)oxy]tetrahydrofuran-3-yl}propane-2-sulfonamide.]
3 | 2580 nM | CC(C)S(=O)(=O)N[C@H]1COC[C@H]1Oc1ccc(-c2ccc(C#N)s2)nc1 (racemic) [Example 23, cis-N-[4-{[6-(5-cyano-2-thienyl)pyridin-3-yl]oxy}tetra hydrofuran-3-yl]propane-2-sulfonamide]
4 | 4480 nM | CC(C)S(=O)(=O)N[C@H]1COC[C@H]1Oc1ccc(-c2ccc(N(C)C)nc2)cc1 (racemic) [Example 43, cis-N-[4-{4-[6-(dimethyl-amino)-pyridin-3-yl]phenoxy}-tetrahydrofuran-3-yl]propane-2-sulfonamide]
5 | 2700 nM | CC(C)S(=O)(=O)N[C@H]1COC[C@H]1Oc1ccc(-c2ccccc2C(F)(F)F)cc1 (racemic) [Example 44, cis-N-[4-{[2′-(trifluoro-methyl)-biphenyl-4-yl]oxy}-tetrahydrofuran-3-yl]propane-2-sulfonamide]
6 | 2550 nM | Cc1ccc(-c2ccc(O[C@@H]3COC[C@@H]3NS(=O)(=O)C(C)C)cc2)cc1 (racemic) [Example 45, cis-N-{4-[(4′-methylbiphenyl-4-yl)oxy]-tetrahydrofuran-3-yl}propane-2-sulfonamide]
7 | 3820 nM | CC(C)S(=O)(=O)N[C@H]1COC[C@H]1Oc1ccc(-c2cccc(C(F)(F)F)c2)cc1 (racemic) [Example 47, cis-N-[4-{[3′-(trifluoromethyl)biphenyl-4-yl]oxy}tetrahydrofuran-3-yl]propane-2-sulfonamide]
8 | 626 nM | CC(C)S(=O)(=O)N[C@H]1COC[C@H]1Oc1ccc(-c2ccncc2)cc1 (racemic) [Example 48, cis-N-[4-(4-pyridin-4-ylphenoxy)tetrahydrofuran-3-yl]propane-2-sulfonamide]
9 | 452 nM | CC(C)S(=O)(=O)N[C@H]1COC[C@H]1Oc1ccc(-c2cccc3ncccc23)cc1 (racemic) [Example 50, cis-N-[4-(4-quinolin-5-ylphenoxy)tetrahydrofuran-3-yl]propane-2-sulfonamide]
10 | 1250 nM | CC(C)S(=O)(=O)N[C@H]1COC[C@H]1Oc1ccc(-c2cccc3cnccc23)cc1 (racemic) [Example 52, cis-N-[4-(4-isoquinolin-5-ylphenoxy)tetrahydrofuran-3-yl]propane-2-sulfonamide]
11 | 6150 nM | CC(C)S(=O)(=O)N[C@@H]1COC[C@@H]1Oc1ccc(-c2ccc(C#N)cc2)cc1 (relative stereo) [Example 9, cis-N-{4-[(4′-cyanobiphenyl-4-yl)oxy]tetra hydrofuran-3-yl}propane-2-sulfonamide]
12 | 1160 nM | CC(C)S(=O)(=O)N[C@@H]1COC[C@@H]1Oc1ccc(-c2cccnc2)cc1 (relative stereo) [Example 10, cis-N-[4-(4-pyridin-3-ylphenoxy)tetrahydrofuran-3-yl]propane-2-sulfonamide]
13 | 689 nM | CC(C)S(=O)(=O)N[C@@H]1COC[C@@H]1Oc1ccc(-c2cccs2)cc1 (relative stereo) [Example 11, cis-N-{4-[4-(2-thienyl)phenoxy]tetrahydrofuran-3-yl}propane-2-sulfonamide]
14 | 1100 nM | CC(C)S(=O)(=O)N[C@@H]1COC[C@@H]1Oc1ccc(-c2ccc(F)nc2)cc1 (relative stereo) [Example 12, cis-N-{4-[4-(6-fluoropyridin-3-yl)phenoxy]tetrahydrofuran-3-yl}propane-2-sulfonamide]
15 | 5280 nM | COc1ccc(-c2ccc(O[C@H]3COC[C@H]3NS(=O)(=O)C(C)C)cc2)cn1 (relative stereo) [Example 13, cis-N-{4-[4-(6-methoxypyridin-3-yl)phenoxy]tetrahydrofuran-3-yl}propane-2-sulfonamide]
16 | 2320 nM | CC(C)S(=O)(=O)N[C@@H]1COC[C@@H]1Oc1ccc(-c2ccoc2)cc1 (relative stereo) [Example 14, cis-N-{4-[4-(3-furyl)phenoxy]tetrahydrofuran-3-yl}propane-2-sulfonamide]
17 | 2880 nM | CC(C)S(=O)(=O)N[C@@H]1COC[C@@H]1Oc1ccc(-c2cccnc2F)cc1 (relative stereo) [Example 15, cis-N-{4-[4-(2-fluoropyridin-3-yl)phenoxy]tetrahydrofuran-3-yl}propane-2-sulfonamide]
18 | 523 nM | CC(C)S(=O)(=O)N[C@@H]1COC[C@@H]1Oc1ccc(-c2ccsc2)cc1 (relative stereo) [Example 24, cis-N-{4-[4-(3-thienyl)phenoxy]tetrahydrofuran-3-yl}propane-2-sulfonamide]
19 | 6760 nM | CC(C)S(=O)(=O)N[C@H]1COC[C@H]1Oc1ccc(-c2ccc(C(=O)N(C)C)cc2)cc1 (relative stereo) [Example 46, cis-4′-({4-[(isopropyl-sulfonyl)-amino]tetrahydrofuran-3-yl}oxy)-N,N-dimethyl-biphenyl-4-carboxamide]
20 | 1410 nM | CC(C)S(=O)(=O)N[C@H]1COC[C@H]1Oc1ccc(-c2ccccc2C(N)=O)cc1 (relative stereo) [Example 49, cis-4′-({4-[(isopropylsulfonyl)amino]tetrahydrofuran-3-yl}oxy)biphenyl-2-carboxamide]
21 | 2090 nM | CC(C)S(=O)(=O)N[C@H]1COC[C@H]1Oc1ccc(-c2ccccc2S(=O)(=O)NC(C)(C)C)cc1 (relative stereo) [Example 51, cis-N-tert-butyl-4′-({4-[(isopropylsulfonyl)amino]tetrahydrofuran-3-yl}oxy)biphenyl-2-sulfonamide]
22 | 1110 nM | CC(C)S(=O)(=O)N[C@H]1COC[C@H]1Oc1ccc(-c2cccc(C(N)=O)c2)cc1 (relative stereo) [Example 53, cis-4′-({4-[(isopropylsulfonyl)amino]tetrahydrofuran-3-yl}oxy) biphenyl-3-carboxamide]
23 | < 10 nM | CC(C)S(=O)(=O)N[C@H]1COC[C@H]1Oc1ccc(-c2ccc(F)cc2C#N)cc1 (single isomer, unassigned) [Example 16]
24 | 405 nM | CC(C)S(=O)(=O)N[C@H]1COC[C@H]1Oc1ccc(-c2ccc(F)cc2)cc1 (single isomer, unassigned) [Example 17]
25 | 1360 nM | CC(C)S(=O)(=O)N[C@H]1COC[C@H]1Oc1ccc(-c2ccccc2)cc1 [Example 2, N-[(3S,4S)-4-(biphenyl-4-yloxy)tetrahydrofuran-3-yl]propane-2-sulfonamide]
26 | 21.7 nM | CC(C)S(=O)(=O)N[C@H]1COC[C@H]1Oc1ccc(-c2ccccc2C#N)cc1 [Example 3, N-{(3S,4S)-4-[(2′-cyanobiphenyl-4-yl)oxy]tetrahydrofuran-3-yl}propane-2-sulfonamide]
27 | 1790 nM | CC(C)S(=O)(=O)N[C@H]1COC[C@H]1Oc1ccc(-c2ccc(C#N)s2)cc1 [Example 4, N-{(3S,4S)-4-[4-(5-cyano-2-thienyl)phenoxy]tetrahydrofuran-3-yl}propane-2-sulfonamide]
